Each block holds one compound with its values, some of them ahead of it.
What was measured:
[1] = biological target: murine CCL2 wild type (monocyte chemoattractant protein-1) (murine) (UniProt P10148); assay: NMR translational diffusion
[2] = biological target: DDAH (Pseudomonas aeruginosa) (UniProt Q9I4E3); conditions: cited from earlier work
[3] = biological target: murine CCL2 (mCCL2-P8A, MCP-1) (Mus musculus, UniProt P10148, P31A); assay: intrinsic Trp fluorescence quenching titration; type: binding
Sequence of murine CCL2 (mCCL2-P8A, MCP-1) (P10148 24-99 P31A limits assumed): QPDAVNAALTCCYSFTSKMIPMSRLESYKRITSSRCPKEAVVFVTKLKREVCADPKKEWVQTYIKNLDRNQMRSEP

[4] = biological target: murine CCL2 (mCCL2-WT, MCP-1) (Mus musculus, UniProt P10148); assay: intrinsic Trp fluorescence quenching titration; type: binding
Sequence of murine CCL2 (mCCL2-WT, MCP-1) (P10148 24-99 limits assumed): as the sequence (P10148 24-99 P31A limits assumed) above, with A8P counted along it

[5] = biological target: human CCL2 (hCCL2-WT, MCP-1) (Homo sapiens, UniProt P13500); assay: intrinsic Trp fluorescence quenching titration; type: binding
Sequence of human CCL2 (hCCL2-WT, MCP-1) (P13500 24-99): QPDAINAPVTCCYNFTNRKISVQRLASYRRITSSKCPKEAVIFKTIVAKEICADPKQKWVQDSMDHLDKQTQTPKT

[6] = biological target: human CCL2 (hCCL2-P8A, MCP-1) (Homo sapiens, UniProt P13500, P31A); assay: intrinsic Trp fluorescence quenching titration; type: binding
Sequence of human CCL2 (hCCL2-P8A, MCP-1) (P13500 24-99 P31A): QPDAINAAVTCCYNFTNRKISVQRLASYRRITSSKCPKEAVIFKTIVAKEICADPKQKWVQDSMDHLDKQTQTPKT

Sequence of DDAH (Q9I4E3 whole entry): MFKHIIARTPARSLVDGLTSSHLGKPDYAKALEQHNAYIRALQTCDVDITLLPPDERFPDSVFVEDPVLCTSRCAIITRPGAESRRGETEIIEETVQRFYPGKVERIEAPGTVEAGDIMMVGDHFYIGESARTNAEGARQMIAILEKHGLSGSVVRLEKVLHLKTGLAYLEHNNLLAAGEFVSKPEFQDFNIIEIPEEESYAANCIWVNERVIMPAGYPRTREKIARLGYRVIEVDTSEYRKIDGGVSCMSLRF

stoichiometry N [1]: 2
Compound: murine CCL2 wild type (monocyte chemoattractant protein-1) (from UniProt P10148 24-148) (natural protein)

Compound: DDAH (from UniProt Q9I4E3)
Kd [2]: 500 nM

Kd [3]: 270 ± 20 nM
Kd [4]: 290 ± 20 nM
Kd [5]: 250 ± 20 nM
Kd [6]: 260 ± 20 nM
Compound: O=C(O)[C@H]1O[C@@H](Oc2cc3oc(-c4ccccc4)cc(=O)c3c(O)c2O)[C@H](O)[C@@H](O)[C@@H]1O [BA]

— paper PMC7482410 (ACS Omega, 2020)
